Measured values reported in patent US6767991B1, “Hepatitis C inhibitor peptides” (priority 1997, dated 2004).
Like-named read-outs stand apart in the source and are kept apart here. Where a SMILES comes first, the peptide text is derived from it. [ ]: non-standard residue; d: D form. The star is where a group is joined. Acca(2-Et,1R,2R) = CC[C@@H]1C[C@]1(N)C(=O)O; CH2(1-naphthyl) = c1ccc2c(C*)cccc2c1; Hyp = O=C(O)[C@@H]1C[C@@H](O)CN1; Chg = N[C@H](C(=O)O)C1CCCCC1; Nva = CCC[C@H](N)C(=O)O; X1 = c1ccc2cc(C*)ccc2c1; Ac3c = NC1(C(=O)O)CC1; Bn = c1ccc(C*)cc1

Legend:
[1] = target: T1, human leukocyte elastase (Homo sapiens, UniProt P08246); assay: Specificity assay: human leukocyte elastase; assay type: biochemical
T1 sequence (P08246 30-267): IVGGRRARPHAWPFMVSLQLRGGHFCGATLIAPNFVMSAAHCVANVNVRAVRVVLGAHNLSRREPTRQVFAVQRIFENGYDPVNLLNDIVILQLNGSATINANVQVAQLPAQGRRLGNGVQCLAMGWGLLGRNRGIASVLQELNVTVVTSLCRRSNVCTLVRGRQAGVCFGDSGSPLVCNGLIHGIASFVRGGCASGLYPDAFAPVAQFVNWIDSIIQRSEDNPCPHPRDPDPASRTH
Protocol: (§1) The final conditions for each assay were as follows:
[100 μM Succ-AAPF-pNA [SEQ. ID NO.
(§2) The percentage of inhibition was calculated using the formula:
(§3) [1-((UVinn-UVblank)/(UVctl-UVblank))]×100

[2] = target: T2, HCV NS3 protease type 1b/NS4A cofactor peptide (Hepatitis C virus genotype 1b, UniProt P26663); assay: Recombinant HCV NS3 protease/NS4A cofactor peptide radiometric assay; assay type: biochemical, HCV genotype 1b
T2 construct: recombinant HCV NS3 protease (amino acid 1027 to 1206) was cloned in the pET11d bacterial expression vector; made in house; host or cells: E. coli BL21(DE3)pLysS
Protocol: Recombinant HCV NS3 Protease/NS4A Cofactor Peptide Radiometric Assay.
The enzyme was stored at −80° C., thawed on ice and diluted just prior to use in the assay buffer containing the NS4A cofactor peptide.
The substrate used for the NS3 protease/NS4A cofactor peptide radiometric assay, DDIVPC-SMSYTW [SEQ. ID NO. 2], is cleaved between the cysteine and the serine residues by the enzyme. The sequence DDIVPC-SMSYTW [SEQ. ID NO. 2] corresponds to the NS5A/NS5B natural cleavage site in which the cysteine residue in P2 has been substituted for a proline. The peptide substrate DDIVPC-SMSYTW [SEQ. ID NO. […] ID NO. […] [SEQ. ID NO. 5] (molar ratio enzyme: cofactor 1:100) in the absence or presence of inhibitors. The separation of substrate from products is performed by adding avidin-coated agarose beads to the assay mixture followed by filtration. […] ID NO. 4] product found in the filtrate allows for the calculation of the percentage of substrate conversion and of the percentage of inhibition.
Tris and Tris-HCl (UltraPure) were obtained from Gibco-BRL. Glycerol (UltraPure), MES and BSA were purchased from Sigma. TCEP was obtained from Pierce, DMSO from Aldrich and NaOH from Anachemia.
Assay buffer: 50 mM Tris HCl, pH 7.5, 30% (w/v) glycerol, 1 mg/mL BSA, 1 mM TCEP (TCEP added just prior to use from a 1 M stock solution in water).
Substrate: […] [SEQ. ID NO.
ID NO. 3] (˜1 nM final concentration).
The assay was performed in a 96-well polypropylene plate from Costar. Each well contained:
20 μL substrate/tracer in assay buffer;
10 μL±inhibitor in 20% DMSO/assay buffer;
10 μL NS3 protease 1b/NS4 cofactor peptide (molar ratio 1:100).
Blank (no inhibitor and no enzyme) and control (no inhibitor) were also prepared on the same assay plate.
The enzymatic reaction was initiated by the addition of the enzyme/NS4A peptide solution and the assay mixture was incubated for 40 min at 23° C. under gentle agitation. Ten (10) μL of 0.5N NaOH were added and 10 μL 1 M MES, pH 5.8 were added to quench the enzymatic reaction.
Twenty (20) μL of avidin-coated agarose beads (purchased from Pierce) were added in a Millipore MADP N65 filtration plate. The quenched assay mixture was transferred to the filtration plate, and incubated for 60 min at 23° C. under gentle agitation.
The plates were filtered using a Millipore MultiScreen Vacuum Manifold Filtration apparatus, and 40 μL of the filtrate was transferred in an opaque 96-well plate containing 60 μL of scintillation fluid per well.
The % inhibition was calculated with the following equation:
100-[(countsinh-countsblank)/(countsctl-countsblank)×100]

[3] = target: bovine pancreatic α-chymotrypsin (Bos taurus, UniProt P00766); assay: biochemical
Protocol: (§4) The specificity of the compounds was determined against a variety of serine proteases: human leukocyte elastase, porcine pancreatic elastase and bovine pancreatic α-chymotrypsin and one cysteine protease: human liver cathepsin B. In all cases a 96-well plate format protocol using a colorimetric p-nitroaniline (pNA) substrate specific for each enzyme was used. Each assay included a 1 h enzyme-inhibitor pre-incubation at 30° C. followed by addition of substrate and hydrolysis to ≈30% conversion as measured on a UV Thermomax® microplate reader. Substrate concentrations were kept as low as possible compared to KM to reduce substrate competition. Compound concentrations varied from 300 to 0.06 μM depending on their potency. The final conditions for each assay were as follows:
(§5) 50 mM Tris-HCl pH 8, 0.5 M Na2SO4, 50 mM NaCl, 0.1 mM EDTA, 3% DMSO, 0.01% Tween-20 with;
After 60 min pre-incubation at 30° C., 20 μL of substrate solution (50 mM Tris/HCl, pH 8, 0.5 M Na2SO4, 50 mM NaCl, 0.1 mM EDTA, 665 μM Succ-AAA-pNA) were added to each well and the reaction was further incubated at 30° C. for 60 min after which time the absorbance was read on the UV Thermomax® plate reader. Rows of wells were allocated for controls (no inhibitor) and for blanks (no inhibitor and no enzyme). […]
The percentage of inhibition was calculated using the formula: […]

[4] = target: porcine pancreatic elastase (Sus scrofa, UniProt P00772); assay: biochemical
Protocol: as §4, §5
[100 μM Succ-AAPF-pNA [SEQ. […] 7] and 250 pM α-chymotrypsin], [133 μM Succ-AAA-pNA and 8 nM porcine elastase], [133 μM Succ-AAV-pNA and 8 nM leukocyte elastase]; or
A representative example is summarized below for porcine pancreatic elastase: In a polystyrene flat-bottom 96-well plate were added using a Biomek liquid handler (Beckman):
40 μL of assay buffer (50 mM Tris-HCl pH 8, 50 mM NaCl, 0.1 mM EDTA);
20 μL of enzyme solution (50 mM Tris-HCl pH 8, 50 mM NaCl, 0.1 mM EDTA, 0.02% Tween-20, 40 nM porcine pancreatic elastase); and
20 μL of inhibitor solution (50 mM Tris-HCl, pH 8, 50 mM NaCl, 0.1 mM EDTA, 0.02% Tween-20, 1.5 mM-0.3 μM inhibitor, 15% v/v DMSO).
After 60 min pre-incubation at 30° C., 20 μL of substrate solution (50 mM Tris/HCl, pH 8, 0.5 M Na2SO4, 50 mM NaCl, 0.1 mM EDTA, 665 μM Succ-AAA-pNA) were added to each well and the reaction was further incubated at 30° C. for 60 min after which time the absorbance was read on the UV Thermomax® plate reader. Rows of wells were allocated for controls (no inhibitor) and for blanks (no inhibitor and no enzyme). The sequential 2-fold dilutions of the inhibitor solution were performed on a separate plate by the liquid handler using 50 mM Tris-HCl pH 8, 50 mM NaCl, 0.1 mM EDTA, 0.02% Tween-20, 15% DMSO. All other specificity assays were performed in a similar fashion.
A non-linear curve fit with the Hill model was applied to the inhibition-concentration data, and the 50% effective concentration (IC50) was calculated by the use of SAS software (Statistical Software System; SAS Institute, Inc., Cary, N.C.).

[5] = target: NS3 protease (Hepatitis C virus genotype 1b, UniProt P26663); assay: Inhibition of NS3 protease by N-terminal cleavage product (assay not specified); assay type: biochemical, HCV; conditions: N-terminal cleavage product of an analog of a natural substrate
[6] = target: T3, human liver cathepsin B (Homo sapiens, UniProt P07858); assay: Specificity assay: human liver cathepsin B; assay type: biochemical
T3 construct: from tissue; host or cells: human liver
Protocol: as §1
[100 mM NaHPO4 pH 6, 0.1 mM EDTA, 3% DMSO, 1 mM TCEP, 0.01% Tween-20, 30 μM Z-FR-pNA and 5 nM cathepsin B (tile stock enzyme was activated in buffer containing 20 mM TCEP before use)].
as §2, §3

[7] = Table 2, human leukocyte elastase, read-out: HLE
[8] = IC50, Table 2, unmarked values: NS3 protease/NS4A cofactor peptide radiometric assay
[9] = Table 5, first line of the cell, NS3 protease/NS4A cofactor peptide radiometric assay (Example 38), read-out: IC50
[10] = Table 2, unmarked values: NS3 protease/NS4A cofactor peptide radiometric assay, read-out: IC50

T2 sequence (P26663 1027-1206, other chains not shown): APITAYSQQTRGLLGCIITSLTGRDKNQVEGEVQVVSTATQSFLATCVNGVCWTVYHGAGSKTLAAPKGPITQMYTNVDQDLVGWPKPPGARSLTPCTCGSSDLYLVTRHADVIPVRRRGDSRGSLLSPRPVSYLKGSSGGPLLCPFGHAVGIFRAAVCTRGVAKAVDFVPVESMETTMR
porcine pancreatic elastase, sequence (P00772 27-266): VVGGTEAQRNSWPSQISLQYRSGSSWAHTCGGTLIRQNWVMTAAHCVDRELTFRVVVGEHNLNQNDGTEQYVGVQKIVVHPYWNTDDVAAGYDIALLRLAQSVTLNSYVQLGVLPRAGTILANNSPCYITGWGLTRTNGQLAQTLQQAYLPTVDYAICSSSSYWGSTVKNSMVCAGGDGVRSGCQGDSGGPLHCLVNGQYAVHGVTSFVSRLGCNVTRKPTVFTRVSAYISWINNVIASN
NS3 protease, sequence (P26663 1027-1208): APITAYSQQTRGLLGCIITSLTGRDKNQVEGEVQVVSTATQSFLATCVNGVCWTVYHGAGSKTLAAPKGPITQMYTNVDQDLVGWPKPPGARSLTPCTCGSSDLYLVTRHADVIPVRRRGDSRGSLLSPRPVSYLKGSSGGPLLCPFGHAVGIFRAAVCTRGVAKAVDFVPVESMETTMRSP

Compound	IC50 [1, 7]	IC50 [2, 8]	IC50 [4]	IC50 [1]	further results
CC(=O)N[C@@H](CC(=O)O)C(=O)N[C@H](CCC(=O)O)C(=O)N[C@H](C(=O)N[C@H](C(=O)N1C[C@H](OCc2ccccc2)C[C@H]1C(=O)N[C@@H](CS)C(=O)O)C(C)C)C1CCCCC1 [compound 210] (Ac-D[dE][Chg]V[Hyp](Bn)C-OH)	> 300 µM	0.033 µM	> 300 µM	–	IC50 [3]: > 300 µM
Ac-DDIVPC-OH [Ac-D-D-I-V-P-C-OH]	–	–	–	–	inhibition of NS3 protease [5]: inhibitory
CC[C@@H]1C[C@]1(NC(=O)[C@@H]1C[C@@H](OCc2cccc3ccccc23)CN1C(=O)[C@@H](NC(=O)[C@@H](NC(=O)[C@@H](CCC(=O)O)NC(=O)[C@H](CC(=O)O)NC(C)=O)C1CCCCC1)C(C)C)C(=O)O [compound 518] (Ac-D[dE][Chg]V[Hyp](CH2(1-naphthyl))[Acca(2-Et,1R,2R)]-OH)	–	–	–	> 300 µM	IC50 [2, 9]: 0.011 µM
CCC[C@H](NC(=O)[C@@H]1C[C@@H](OCc2ccccc2)CN1C(=O)[C@@H](NC(=O)[C@@H](NC(=O)[C@@H](CCC(=O)O)NC(=O)[C@H](CC(=O)O)NC(C)=O)[C@@H](C)CC)C(C)C)C(=O)O [compound 203] (Ac-D[dE]IV[Hyp](Bn)[Nva]-OH; C-terminus assumed)	> 300 µM	0.6 µM	> 300 µM	–	IC50 ([6]; Table 2, marked **: human liver cathepsin B, read-out: Other (marked **)): > 300 µM
CC[C@@H]1C[C@]1(NC(=O)[C@@H]1C[C@@H](OCc2cccc3ccccc23)CN1C(=O)[C@@H](NC(=O)[C@@H](NC(=O)[C@H](NC(=O)[C@H](CC(=O)O)NC(C)=O)C(C)C)C1CCCCC1)C(C)C)C(=O)O [compound 521] (Ac-D[dV][Chg]V[Hyp](CH2(1-naphthyl))[Acca(2-Et,1R,2R)]-OH)	–	–	–	> 300 µM	IC50 [2, 9]: 0.024 µM
CCC[C@H](NC(=O)[C@@H]1CCCN1C(=O)[C@@H](NC(=O)[C@@H](NC(=O)[C@H](CC(=O)O)NC(=O)[C@H](CC(=O)O)NC(C)=O)[C@@H](C)CC)C(C)C)C(=O)O [compound 123]	–	–	> 300 µM	> 300 µM	IC50 ([2]; Table 1, unmarked values: NS3 protease/NS4A cofactor peptide radiometric assay, read-out: IC50): 220 µM
CC[C@@H]1C[C@]1(NC(=O)[C@@H]1C[C@@H](OCc2cccc3ccccc23)CN1C(=O)[C@@H](NC(=O)[C@@H](NC(=O)[C@@H](CCC(=O)O)NC(=O)[C@H](CC(=O)O)NC(C)=O)C1CCCCC1)C1CCCCC1)C(=O)O [compound 509] (Ac-D[dE][Chg][Chg][Hyp](CH2(1-naphthyl))[Acca(2-Et,1R,2R)]-OH)	–	–	–	> 300 µM	IC50 [2, 9]: 0.015 µM
CCC[C@H](NC(=O)[C@@H]1C[C@@H](OCc2ccc3ccccc3c2)CN1C(=O)[C@@H](NC(=O)[C@@H](NC(=O)[C@@H](CCC(=O)O)NC(=O)[C@H](CC(=O)O)NC(C)=O)C1CCCCC1)C(C)C)C(=O)O [compound 214] (Ac-D[dE][Chg]V[Hyp](X1)[Nva]-OH)	–	–	> 300 µM	> 300 µM	IC50 [6]: > 300 µM; IC50 [2, 10]: 0.028 µM; IC50 [3]: > 300 µM
CC(=O)N[C@H](C(=O)N[C@H](C(=O)N1C[C@H](OCc2cccc3ccccc23)C[C@H]1C(=O)NC1(C(=O)O)CC1)C(C)C)C1CCCCC1 [compound 227] (Ac-[Chg]V[Hyp](CH2(1-naphthyl))[Ac3c]-OH)	–	–	–	> 600 µM	IC50 [2, 10]: 3 µM
CC(=O)N[C@H](C(=O)N[C@H](C(=O)N1C[C@H](Oc2ccc(Br)cc2)C[C@H]1C(=O)NC1(C(=O)O)CC1)C(C)C)C1CCCCC1 [compound 238]	195 µM	27 µM	–	–	–
CC[C@@H]1C[C@]1(NC(=O)[C@@H]1C[C@@H](OCc2cccc3ccccc23)CN1C(=O)[C@@H](NC(=O)[C@@H](NC(C)=O)C1CCCCC1)C(C)C)C(=O)O [compound 513]	–	–	–	> 300 µM	fold more potent than the corresponding 1S,2S isomer ([2]; 1R,2R isomer (513) versus 1S,2S isomer (514)): 25 fold; IC50 ([2]; IC50 (μM), Table 5, first line of the cell, NS3 protease/NS4A cofactor peptide radiometric assay (Example 38)): 1.66 µM; IC50 ([2]; text b180, values of Table 5, 1R,2R versus 1S,2S isomer at P1, read-out: IC50): 1.6 µM
CC[C@H](C)[C@H](NC(=O)[C@@H](CCC(=O)O)NC(=O)[C@H](CC(=O)O)NC(C)=O)C(=O)N[C@H](C(=O)N1C[C@H](OCc2ccccc2)C[C@H]1C(=O)NC1(C(=O)O)CC1)C(C)C [compound 212] (Ac-D[dE]IV[Hyp](Bn)[Ac3c]-OH; C-terminus assumed)	> 300 µM	0.21 µM	> 300 µM	–	–
